# Assay results from ChEMBL document CHEMBL1201862, “PubChem BioAssay data set” (2004).
#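 Step 1: Grow cells in 96-well plates. Step 2: Expose to compound for 48 hours at 5 concentrations. Step 3: Interpolate endpoints linearly; if unreached, use highest concentration. GI50 = concentration required for 50% inhibition of growth.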 Calls of active or inactive are those of the source. Cut-off read from the data, not from the text of the source: active = GI50 up to about 1.1 µM and inactive = higher.
# Assays:
# Assay in all cases: DTP human tumour cell line panel, 48 h
# KM-20L2 = tested on: KM-20L2
# CAKI-1 = tested on: CAKI-1
# EKVX = tested on: EKVX
# HL-60 = tested on: HL-60
# SF-268 = tested on: SF-268
# HT-29 = tested on: HT-29
# SK-MEL-2 = tested on: SK-MEL-2
# M14 = tested on: M14
# HOP-62 = tested on: HOP-62
# K562 = tested on: K562
# SK-OV-3 = tested on: SK-OV-3
# SR = tested on: SR
# OVCAR-3 = tested on: OVCAR-3
# IGROV-1 = tested on: IGROV-1
# SNB-75 = tested on: SNB-75
# LOX IMVI = tested on: LOX IMVI
# ACHN = tested on: ACHN
# HCT-15 = tested on: HCT-15
# HOP-92 = tested on: HOP-92
# HCT-116 = tested on: HCT-116
# MOLT-4 = tested on: MOLT-4
# COLO 205 = tested on: COLO 205
# TK-10 = tested on: TK-10
# HCC 2998 = tested on: HCC 2998
# KM12 = tested on: KM12
# NCI-H460 = tested on: NCI-H460
# UACC-257 = tested on: UACC-257
# RXF 393 = tested on: RXF 393
# SW-620 = tested on: SW-620
# UACC-62 = tested on: UACC-62
# NCI-H226 = tested on: NCI-H226
# NCI-H522 = tested on: NCI-H522
# OVCAR-4 = tested on: OVCAR-4
# OVCAR-8 = tested on: OVCAR-8
# U-251 = tested on: U-251
# SK-MEL-28 = tested on: SK-MEL-28
# LXFL 529 = tested on: LXFL 529
# RPMI-8226 = tested on: RPMI-8226
# CCRF-CEM = tested on: CCRF-CEM
# Malme-3M = tested on: Malme-3M
# DLD-1 = tested on: DLD-1
# M19-MEL = tested on: M19-MEL
# OVCAR-5 = tested on: OVCAR-5
# NCI-H23 = tested on: NCI-H23
# SK-MEL-5 = tested on: SK-MEL-5
# UO-31 = tested on: UO-31
# SN12C = tested on: SN12C
# SF-295 = tested on: SF-295
# DMS-273 = tested on: DMS-273
# A549 = tested on: A549
# HOP-18 = tested on: HOP-18
# SF-539 = tested on: SF-539
# SNB-78 = tested on: SNB-78
# SNB-19 = tested on: SNB-19
compound,measurement,setting,value
CN(C)C(=O)OC1C(=O)N(C)c2ccc(Cl)cc2C2(c3ccccc3)N1C2(Cl)Cl (stereo unspecified),GI50,KM-20L2,40 µM (inactive)
same,GI50,CAKI-1,> 100 µM (inactive)
same,GI50,EKVX,44.4 µM (inactive)
same,GI50,HL-60,29.4 µM (inactive)
same,GI50,SF-268,> 100 µM (inactive)
same,GI50,HT-29,> 100 µM (inactive)
same,GI50,SK-MEL-2,> 100 µM (inactive)
same,GI50,M14,> 100 µM (inactive)
same,GI50,HOP-62,54.8 µM (inactive)
same,GI50,K562,56.6 µM (inactive)
same,GI50,SK-OV-3,82.8 µM (inactive)
same,GI50,SR,49.7 µM (inactive)
same,GI50,OVCAR-3,53.8 µM (inactive)
same,GI50,IGROV-1,> 100 µM (inactive)
same,GI50,SNB-75,69.3 µM (inactive)
same,GI50,LOX IMVI,> 100 µM (inactive)
same,GI50,ACHN,> 100 µM (inactive)
same,GI50,HCT-15,60.4 µM
same,GI50,HOP-92,18.7 µM (inactive)
same,GI50,HCT-116,62.7 µM (inactive)
same,GI50,MOLT-4,47.9 µM (inactive)
same,GI50,COLO 205,> 100 µM (inactive)
same,GI50,TK-10,56.5 µM (inactive)
same,GI50,HCC 2998,> 100 µM (inactive)
same,GI50,KM12,62.1 µM (inactive)
same,GI50,NCI-H460,> 100 µM (inactive)
same,GI50,UACC-257,66.8 µM (inactive)
same,GI50,RXF 393,69.2 µM (inactive)
same,GI50,SW-620,> 100 µM (inactive)
same,GI50,UACC-62,64.7 µM (inactive)
same,GI50,NCI-H226,38.7 µM (inactive)
same,GI50,NCI-H522,46 µM (inactive)
same,GI50,OVCAR-4,> 100 µM (inactive)
same,GI50,OVCAR-8,95.5 µM (inactive)
same,GI50,U-251,45.3 µM (inactive)
same,GI50,SK-MEL-28,> 100 µM (inactive)
same,GI50,LXFL 529,> 100 µM (inactive)
same,GI50,RPMI-8226,46.5 µM (inactive)
same,GI50,CCRF-CEM,75.2 µM (inactive)
same,GI50,Malme-3M,> 100 µM (inactive)
same,GI50,DLD-1,55.1 µM (inactive)
same,GI50,M19-MEL,> 100 µM (inactive)
same,GI50,OVCAR-5,> 100 µM (inactive)
same,GI50,NCI-H23,47.8 µM (inactive)
same,GI50,SK-MEL-5,40.3 µM (inactive)
same,GI50,UO-31,49.2 µM (inactive)
same,GI50,SN12C,59.3 µM (inactive)
same,GI50,SF-295,77.1 µM (inactive)
same,GI50,DMS-273,72.4 µM (inactive)
CCNc1nnc(-c2nsc3ccccc23)s1,GI50,KM-20L2,55.3 µM (inactive)
same,GI50,EKVX,51.9 µM (inactive)
same,GI50,HL-60,> 100 µM (inactive)
same,GI50,SF-268,23.5 µM (inactive)
same,GI50,HT-29,26.5 µM (inactive)
same,GI50,SK-MEL-2,> 100 µM (inactive)
same,GI50,M14,> 100 µM (inactive)
same,GI50,A549,> 100 µM (inactive)
same,GI50,HOP-62,33.7 µM (inactive)
same,GI50,K562,> 100 µM (inactive)
same,GI50,SR,> 100 µM (inactive)
same,GI50,OVCAR-3,17.8 µM (inactive)
same,GI50,IGROV-1,> 100 µM (inactive)
same,GI50,SNB-75,8.83 µM (inactive)
same,GI50,LOX IMVI,> 100 µM (inactive)
same,GI50,ACHN,62.4 µM (inactive)
same,GI50,HCT-15,> 100 µM
same,GI50,HOP-92,> 100 µM (inactive)
same,GI50,HCT-116,24.7 µM (inactive)
same,GI50,MOLT-4,> 100 µM (inactive)
same,GI50,COLO 205,> 100 µM (inactive)
same,GI50,TK-10,> 100 µM (inactive)
same,GI50,HOP-18,11.5 µM (inactive)
same,GI50,HCC 2998,67.6 µM (inactive)
same,GI50,KM12,59.7 µM (inactive)
same,GI50,SF-539,56.2 µM (inactive)
same,GI50,NCI-H460,33.2 µM (inactive)
same,GI50,UACC-257,> 100 µM (inactive)
same,GI50,RXF 393,32.8 µM (inactive)
same,GI50,SW-620,> 100 µM (inactive)
same,GI50,UACC-62,> 100 µM (inactive)
same,GI50,OVCAR-4,86.5 µM (inactive)
same,GI50,OVCAR-8,57.8 µM (inactive)
same,GI50,U-251,31.3 µM (inactive)
same,GI50,SK-MEL-28,88.3 µM (inactive)
same,GI50,LXFL 529,94.2 µM (inactive)
same,GI50,RPMI-8226,65.3 µM (inactive)
same,GI50,CCRF-CEM,> 100 µM (inactive)
same,GI50,M19-MEL,> 100 µM (inactive)
same,GI50,OVCAR-5,> 100 µM (inactive)
same,GI50,SNB-78,62.1 µM (inactive)
same,GI50,NCI-H23,45.5 µM (inactive)
same,GI50,SK-MEL-5,> 100 µM (inactive)
same,GI50,UO-31,24.8 µM (inactive)
same,GI50,SNB-19,16.3 µM (inactive)
same,GI50,SN12C,> 100 µM (inactive)
same,GI50,DMS-273,27.7 µM (inactive)
